In ChEMBL document CHEMBL5120753, “Isolation and biological activity of azocine and azocane alkaloids” (Bioorg Med Chem, 2022):
≈ marks a conversion by molar mass, not a printed value.

What was measured:
N2a = test: Neuroprotective activity against paraquat induced mouse Neuro2a cells assessed as reduction in cell viability at 1 uM pretreated for 1 hr followed by paraquat addition measured after 24 hrs by MTT method relative to control; assay type: functional; details: time 25 hrs
[1] = biological target: Xanthine dehydrogenase/oxidase (Homo sapiens, UniProt P47989); test: Inhibition of xanthine oxidase (unknown origin) at 10 uM using xanthine as substrate
Chain of Xanthine dehydrogenase/oxidase (P47989 whole entry): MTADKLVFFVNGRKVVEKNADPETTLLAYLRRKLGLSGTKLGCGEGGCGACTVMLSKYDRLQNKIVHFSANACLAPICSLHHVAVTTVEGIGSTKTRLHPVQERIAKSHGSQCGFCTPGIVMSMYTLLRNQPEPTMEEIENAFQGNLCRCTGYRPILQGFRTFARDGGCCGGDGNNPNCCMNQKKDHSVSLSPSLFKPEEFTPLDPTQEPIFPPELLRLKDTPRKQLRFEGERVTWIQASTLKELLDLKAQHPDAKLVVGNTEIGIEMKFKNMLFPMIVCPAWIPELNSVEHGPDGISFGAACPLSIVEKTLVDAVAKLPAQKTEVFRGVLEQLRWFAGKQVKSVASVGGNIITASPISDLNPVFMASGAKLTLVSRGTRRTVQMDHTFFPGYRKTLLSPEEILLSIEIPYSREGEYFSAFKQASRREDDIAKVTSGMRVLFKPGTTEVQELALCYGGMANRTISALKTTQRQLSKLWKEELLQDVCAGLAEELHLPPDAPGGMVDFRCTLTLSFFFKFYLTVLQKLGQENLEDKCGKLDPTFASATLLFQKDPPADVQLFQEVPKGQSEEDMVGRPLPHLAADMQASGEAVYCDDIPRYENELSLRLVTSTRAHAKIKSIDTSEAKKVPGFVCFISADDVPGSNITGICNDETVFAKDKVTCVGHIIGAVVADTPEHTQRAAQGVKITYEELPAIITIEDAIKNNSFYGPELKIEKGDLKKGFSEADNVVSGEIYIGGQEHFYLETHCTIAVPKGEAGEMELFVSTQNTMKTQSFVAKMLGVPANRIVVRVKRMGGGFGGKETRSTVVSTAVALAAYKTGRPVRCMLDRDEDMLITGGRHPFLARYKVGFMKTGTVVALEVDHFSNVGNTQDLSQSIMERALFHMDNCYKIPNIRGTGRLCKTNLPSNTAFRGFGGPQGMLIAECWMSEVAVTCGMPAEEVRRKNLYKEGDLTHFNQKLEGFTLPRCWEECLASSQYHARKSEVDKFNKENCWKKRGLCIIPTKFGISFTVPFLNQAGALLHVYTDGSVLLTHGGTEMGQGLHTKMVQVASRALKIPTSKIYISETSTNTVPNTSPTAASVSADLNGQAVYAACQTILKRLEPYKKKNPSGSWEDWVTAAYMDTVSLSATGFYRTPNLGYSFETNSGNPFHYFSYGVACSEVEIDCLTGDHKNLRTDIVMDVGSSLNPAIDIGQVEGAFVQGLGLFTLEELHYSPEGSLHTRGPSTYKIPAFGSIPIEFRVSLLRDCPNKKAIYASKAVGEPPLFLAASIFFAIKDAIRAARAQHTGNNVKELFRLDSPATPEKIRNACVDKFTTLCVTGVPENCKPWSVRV

[2] = Displacement of [3H]-naloxone from opiate receptor in rat cortical brain membrane assessed as inhibition constant incubated for 30 mins by liquid scintillation counter analysis; assay type: cell membranes
P388 = test: Cytotoxicity against mouse P388 cells assessed as effective dose; assay type: functional; details: read-out: ED50 (the source's name)
[3] = test system: Mycobacterium tuberculosis; test: Antimycobacterial activity against Mycobacterium tuberculosis H37Rv assessed as inhibition of bacterial growth; assay type: functional
[4] = test system: Mycobacterium tuberculosis; test: Antimycobacterial activity against Mycobacterium tuberculosis H37Rv ATCC 27294 assessed as inhibition of bacterial growth by microplate alamar blue assay; assay type: functional
Plasmodium falciparum [5] = test: Antiplasmodial activity against chloroquine sensitive Plasmodium falciparum D6 assessed as cell growth inhibition; assay type: functional, organism-based
Plasmodium falciparum [6] = test: Antiplasmodial activity against chloroquine sensitive Plasmodium falciparum W2 assessed as cell growth inhibition; assay type: functional, organism-based
[7] = Toxicity in Artemia salina assessed as mortality measured after 24 hrs by microscopic analysis; details: read-out: Activity
Staphylococcus aureus [8] = test: Antibacterial activity against Staphylococcus aureus assessed as zone of inhibition measured after 16 hrs by disk diffusion assay; assay type: functional
[9] = test system: Lactiplantibacillus plantarum; test: Antibacterial activity against Lactobacillus plantarum assessed as inhibition of bacterial growth incubated for 18 to 24 hrs; assay type: functional; details: time 18-24 hrs
[10] = test system: Staphylococcus epidermidis; test: Antibacterial activity against Staphylococcus epidermidis assessed as inhibition of bacterial growth incubated for 18 to 24 hrs; assay type: functional; details: time 18-24 hrs
[11] = Antioxidant activity assessed as free radical scavenging activity incubated for 30 mins by DPPH assay; assay type: functional
Proteus mirabilis = test: Antibacterial activity against Proteus mirabilis assessed as inhibition of bacterial growth incubated for 18 to 24 hrs; assay type: functional; details: time 18-24 hrs
[12] = Cytotoxicity against vincristine resistant human VJ300 cells assessed as cell growth inhibition; assay type: functional, cell-based; details: VJ-300
KB = test: Cytotoxicity against human KB cells assessed as cell growth inhibition; assay type: functional, cell-based
NIH3T3 = test: Cytotoxicity against mouse NIH3T3 cells assessed as cell growth inhibition incubated for 48 hrs by alamar blue dye-based fluorometric analysis; assay type: functional; details: NIH3T3, 48 h
Plasmodium falciparum [13] = test: Antimalarial activity against Plasmodium falciparum K1 infected in human RBC assessed as parasite growth inhibition measured after 48 hrs by optical microscopy; assay type: functional, organism-based; details: K1, Erythrocyte
Staphylococcus aureus [14] = test: Antibacterial activity against Staphylococcus aureus assessed as bacterial growth inhibition; assay type: functional
Plasmodium berghei = test: Antiplasmodial activity against Plasmodium berghei infected in ip dosed Swiss albino mouse assessed as growth inhibition at asexual erythrocytic stage; assay type: functional; set-up: scale not given: the % may be the effect or the level left
[15] = Antagonist activity at alpha-adrenergic receptor in rat aortic strips assessed as receptor mediated adrenolytic activity; details: read-out: pA2 (converted)
[16] = Antagonist activity at serotonin receptor in rat aortic strips assessed as receptor mediated anti-serotoninergic activity; details: read-out: pA2 (converted)
[17] = Inhibition of human beta-secretase
Plasmodium falciparum [18] = test: Antiplasmodial activity against chloroquine-resistant Plasmodium falciparum W2 assessed as cell growth inhibition incubated for 24 hrs by [3H]-hypoxanthine based scintillation counter analysis; assay type: functional, organism-based
Plasmodium falciparum [19] = test: Antiplasmodial activity against chloroquine-sensitive Plasmodium falciparum 3D7 assessed as cell growth inhibition incubated for 24 hrs by [3H]-hypoxanthine based scintillation counter analysis; assay type: functional, organism-based
Acetylcholinesterase = Acetylcholinesterase (Homo sapiens, UniProt P22303); test: Inhibition of human acetylcholinesterase
Chain of Acetylcholinesterase (P22303 whole entry): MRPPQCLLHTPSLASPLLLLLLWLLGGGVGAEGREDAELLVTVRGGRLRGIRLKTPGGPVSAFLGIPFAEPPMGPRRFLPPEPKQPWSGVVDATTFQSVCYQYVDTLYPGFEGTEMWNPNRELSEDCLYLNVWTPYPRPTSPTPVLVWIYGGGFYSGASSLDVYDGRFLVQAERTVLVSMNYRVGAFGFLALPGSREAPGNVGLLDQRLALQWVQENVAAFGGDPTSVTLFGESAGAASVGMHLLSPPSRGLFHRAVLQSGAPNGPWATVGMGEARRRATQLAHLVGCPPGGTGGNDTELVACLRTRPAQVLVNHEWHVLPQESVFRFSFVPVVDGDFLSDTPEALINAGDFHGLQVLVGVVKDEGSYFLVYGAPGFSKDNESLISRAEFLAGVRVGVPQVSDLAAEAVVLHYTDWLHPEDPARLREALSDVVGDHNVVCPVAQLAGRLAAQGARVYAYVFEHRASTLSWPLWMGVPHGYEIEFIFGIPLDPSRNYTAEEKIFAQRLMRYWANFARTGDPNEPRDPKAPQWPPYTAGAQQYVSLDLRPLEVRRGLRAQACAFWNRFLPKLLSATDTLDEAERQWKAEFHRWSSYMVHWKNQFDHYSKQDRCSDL

Cholinesterase = Cholinesterase (Homo sapiens, UniProt P06276); test: Inhibition of human BChE
Chain of Cholinesterase (P06276 whole entry): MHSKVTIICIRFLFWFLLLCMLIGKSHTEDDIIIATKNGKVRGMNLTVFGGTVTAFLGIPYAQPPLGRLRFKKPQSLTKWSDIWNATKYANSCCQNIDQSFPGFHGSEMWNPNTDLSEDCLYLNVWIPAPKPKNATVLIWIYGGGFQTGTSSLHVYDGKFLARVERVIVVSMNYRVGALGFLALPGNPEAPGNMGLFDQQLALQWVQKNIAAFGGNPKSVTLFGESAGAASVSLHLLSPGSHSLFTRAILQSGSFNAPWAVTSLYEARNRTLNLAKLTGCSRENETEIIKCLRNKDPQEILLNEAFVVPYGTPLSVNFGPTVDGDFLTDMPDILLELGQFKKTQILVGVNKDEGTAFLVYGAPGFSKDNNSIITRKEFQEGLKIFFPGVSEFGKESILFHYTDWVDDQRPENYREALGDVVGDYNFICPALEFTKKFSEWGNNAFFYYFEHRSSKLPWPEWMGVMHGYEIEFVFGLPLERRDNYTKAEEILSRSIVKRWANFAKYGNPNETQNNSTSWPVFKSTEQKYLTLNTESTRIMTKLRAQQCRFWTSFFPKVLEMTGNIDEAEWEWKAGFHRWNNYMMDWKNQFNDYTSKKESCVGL

B16-F10 = test: Induction of nitric oxide production in mouse B16-F10 cells at 1 ug/ml measured after 48 hrs by […] analysis; assay type: functional; details: dose 1 µg/ml
[20] = Induction of nitric oxide production in Rabbit aortic endothelial cell at 0.1 ug/ml measured after 48 hrs by […] analysis; assay type: functional, Oryctolagus cuniculus; details: dose 0.1 µg/ml
Leishmania infantum = test: Antileishmanial activity against Leishmania infantum PB75 assessed as cell growth inhibition measured after 72 hrs by MTT assay; assay type: functional
[21] = biological target: Prostaglandin G/H synthase 2 (Homo sapiens) (UniProt P35354); test: Inhibition of COX-2 (unknown origin) using arachidonic acid as substrate at 100 uM preincubated for 5 mins followed by substrate addition measured after 15 mins by absorbance based analysis relative to control; details: time 20.0 min
Chain of Prostaglandin G/H synthase 2 (Homo sapiens) (P35354 whole entry): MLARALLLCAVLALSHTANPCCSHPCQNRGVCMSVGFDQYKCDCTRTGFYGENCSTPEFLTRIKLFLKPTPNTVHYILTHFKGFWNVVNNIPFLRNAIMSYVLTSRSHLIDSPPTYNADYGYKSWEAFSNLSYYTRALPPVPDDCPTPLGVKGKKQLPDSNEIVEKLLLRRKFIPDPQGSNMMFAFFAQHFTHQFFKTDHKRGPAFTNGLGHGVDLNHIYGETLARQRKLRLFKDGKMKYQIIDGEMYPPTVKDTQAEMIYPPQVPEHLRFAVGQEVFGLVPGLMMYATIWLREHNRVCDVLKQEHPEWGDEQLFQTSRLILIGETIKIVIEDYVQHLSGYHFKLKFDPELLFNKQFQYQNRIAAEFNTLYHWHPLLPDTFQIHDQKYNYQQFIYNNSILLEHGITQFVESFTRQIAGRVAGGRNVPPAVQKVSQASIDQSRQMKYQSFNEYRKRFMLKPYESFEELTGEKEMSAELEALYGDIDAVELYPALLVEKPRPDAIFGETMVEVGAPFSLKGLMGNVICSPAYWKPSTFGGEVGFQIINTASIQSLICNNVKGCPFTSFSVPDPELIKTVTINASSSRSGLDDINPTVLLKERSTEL

[22] = biological target: Prostaglandin G/H synthase 1 (Homo sapiens) (UniProt P23219); test: Inhibition of COX-1 (unknown origin) using arachidonic acid as substrate at 100 uM preincubated for 5 mins followed by substrate addition measured after 15 mins by absorbance based analysis relative to control; details: time 20.0 min
Chain of Prostaglandin G/H synthase 1 (Homo sapiens) (P23219 whole entry): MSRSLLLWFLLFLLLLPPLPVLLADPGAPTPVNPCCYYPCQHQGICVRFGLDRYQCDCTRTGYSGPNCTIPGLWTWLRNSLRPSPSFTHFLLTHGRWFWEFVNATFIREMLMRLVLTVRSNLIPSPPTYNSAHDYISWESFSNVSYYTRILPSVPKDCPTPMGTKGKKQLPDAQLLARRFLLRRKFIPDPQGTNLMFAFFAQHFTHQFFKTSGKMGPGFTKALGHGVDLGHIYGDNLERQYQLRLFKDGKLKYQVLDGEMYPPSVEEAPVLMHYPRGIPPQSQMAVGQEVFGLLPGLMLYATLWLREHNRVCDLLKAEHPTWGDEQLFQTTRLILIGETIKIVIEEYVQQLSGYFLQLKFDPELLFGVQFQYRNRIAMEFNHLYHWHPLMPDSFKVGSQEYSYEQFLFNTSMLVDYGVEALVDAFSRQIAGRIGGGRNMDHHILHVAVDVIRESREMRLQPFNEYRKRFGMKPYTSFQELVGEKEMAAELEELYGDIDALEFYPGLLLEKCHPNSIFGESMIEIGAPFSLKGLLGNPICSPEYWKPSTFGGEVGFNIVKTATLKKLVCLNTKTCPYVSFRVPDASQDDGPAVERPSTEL

[23] = biological target: Polyunsaturated fatty acid 5-lipoxygenase (Homo sapiens) (UniProt P09917); test: Inhibition of 5-LOX (unknown origin) using arachidonic acid as substrate at 100 uM preincubated for 5 mins followed by substrate addition measured after 15 mins by absorbance based analysis relative to control; details: time 20.0 min
Chain of Polyunsaturated fatty acid 5-lipoxygenase (Homo sapiens) (P09917 whole entry): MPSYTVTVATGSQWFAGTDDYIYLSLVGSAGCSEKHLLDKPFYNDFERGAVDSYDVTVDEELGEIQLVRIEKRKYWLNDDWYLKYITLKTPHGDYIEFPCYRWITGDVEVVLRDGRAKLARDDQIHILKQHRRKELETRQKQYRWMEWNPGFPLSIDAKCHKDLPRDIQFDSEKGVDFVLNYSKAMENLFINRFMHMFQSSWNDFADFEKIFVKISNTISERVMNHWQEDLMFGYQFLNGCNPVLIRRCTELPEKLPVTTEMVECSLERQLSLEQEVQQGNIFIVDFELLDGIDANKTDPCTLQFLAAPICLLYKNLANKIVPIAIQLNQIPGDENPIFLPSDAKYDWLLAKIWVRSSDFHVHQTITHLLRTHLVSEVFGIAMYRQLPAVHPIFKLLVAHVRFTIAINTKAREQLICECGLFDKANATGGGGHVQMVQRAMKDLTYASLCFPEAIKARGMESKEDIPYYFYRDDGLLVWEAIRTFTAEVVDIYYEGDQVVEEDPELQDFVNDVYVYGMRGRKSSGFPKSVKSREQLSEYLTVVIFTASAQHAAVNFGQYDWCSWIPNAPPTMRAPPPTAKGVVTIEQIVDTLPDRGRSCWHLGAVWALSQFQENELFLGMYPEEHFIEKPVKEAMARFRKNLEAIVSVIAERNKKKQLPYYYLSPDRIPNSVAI

L1210 = test: Cytotoxicity against mouse L1210 cells assessed as cell growth inhibition; assay type: functional, cell-based
[24] = Toxicity in iv dosed rat assessed as lethal dose; details: in vivo

## CC1(C)/C=C\N2C(=O)C3(O)C(O)CCN3C(=O)[C@@H]2Cc2c1[nH]c1ccccc21 (stereo not given in full)
N2a
  Activity: 38.6%

## C=C1c2[nH]c3ccccc3c2CN2CC[C@H]1/C(=C\C)C2 [APPARICINE]
[1]
  IC50: 0.65 µM
[2]
  Ki: 2.65 µM
P388
  EC50: 3.8 µg/mL (≈ 14.4 µM)

## CO[C@H]1/C=C/O[C@@]2(C)Oc3c(C)c(O)c4c(O)c(c(/C=N/N5CCN(C)CC5)c(O)c4c3C2=O)NC(=O)/C(C)=C\C=C\[C@H](C)[C@H](O)[C@@H](C)[C@@H](O)[C@@H](C)[C@H](OC(C)=O)[C@@H]1C [RIFAMPIN]
[3]
  MIC50: 0.5 µg/mL (≈ 0.608 µM)

## C/C=C1/CN2CC[C@@H]1[C@](CO)(C(=O)OC)c1[nH]c3ccccc3c1C2
[4]
  MIC: > 128 µg/mL

## COc1cc([C@H]2Oc3ccc4[nH]cc5c4c3[C@@H]2C(=O)NCC5)ccc1O
Plasmodium falciparum [5]
  IC50: > 10 µg/mL
Plasmodium falciparum [6]
  IC50: > 10 µg/mL
[7]
  mortality at 24 h: 90%
Staphylococcus aureus [8]
  diameter of the inhibition zone (DIZ): 19 mm

## COc1cc([C@H]2Oc3ccc4[nH]cc5c4c3[C@H]2C(=O)NCC5)ccc1O
[9]
  MIC: 1 µg/mL (≈ 2.85 µM)
[10]
  MIC: 10 µg/mL (≈ 28.5 µM)
[11]
  IC50: 3.2 10^-3mg/ml
Proteus mirabilis
  MIC: 1 µg/mL (≈ 2.85 µM)

## COC(=O)[C@@]12COC[C@@H](O)[C@@]3(CO)[C@@H]1CCN3Cc1c2[nH]c2ccccc12
[12]
  IC50: 7.33 µg/mL (≈ 19.7 µM)
KB
  IC50: 7.76 µg/mL (≈ 20.8 µM)

## CC[C@@H]1C2CCN(C)C1c1c([nH]c3ccc(OC)cc13)C2=O (stereo not given in full)
NIH3T3
  IC50: > 50 µg/mL
Plasmodium falciparum [13]
  IC50: 16.7 µM

## O[C@]12C=C(c3nccc4c3[nH]c3ccccc34)[C@@H]3CCN(CCCC/C=C\CC1)C[C@@]31C[C@@H]3/C=C\CCCCN3[C@H]12 [MANZAMINE A]
Staphylococcus aureus [14]
  MIC: 6.3 µg/mL (≈ 11.5 µM)
Plasmodium berghei
  Activity: 90%
[3]
  MIC50: 1.5 µg/mL (≈ 2.73 µM)

## COc1cc2c(cc1OC)-c1ccccc1CCN(C)C2
[15]
  Kb: 0.107 µM
[16]
  Kb: 0.102 µM

## C=C1c2[nH]c3ccc(OC)cc3c2C2[C@@H](CC)C1CCN2C (stereo not given in full)
[17]
  IC50: 180 µM
Plasmodium falciparum [18]
  IC50: 0.75 µg/mL (≈ 2.53 µM)
Plasmodium falciparum [19]
  IC50: 11.9 µg/mL (≈ 40.1 µM)
Acetylcholinesterase
  IC50: 279 µM
Cholinesterase
  IC50: 24 µM
B16-F10
  Activity: 41.1 µM
[20]
  Activity: 20.9 µM

## CC[C@H]1[C@@H]2CCN3CC[C@@]4(C(=C2C(=O)OC)Nc2ccccc24)[C@@H]13 [TUBOTAIWINE]
Leishmania infantum
  GI50: 5.9 µg/mL (≈ 18.2 µM)
[2]
  Ki: 1.65 µM
[21]
  inhibition: 90.4%
[4]
  MIC: 100 µg/mL (≈ 308 µM)
[22]
  inhibition: 60.8%
[23]
  inhibition: 69.5%

## CC1CC2C[C@]34C(=O)CCCN3CCC[C@@]2(O)C(=O)C14 (stereo not given in full)
L1210
  IC50: > 10 µg/mL
KB
  IC50: > 10 µg/mL

## COC(=O)[C@]12COCC[C@@H]3[C@H](c4c1[nH]c1ccccc41)N(C)CC[C@@H]32 [UNDULIFOLINE]
Cholinesterase
  IC50: 28.5 µM

## O=C1C[C@@H]2OCC=C3CN4CC[C@]56c7ccccc7N1[C@H]5[C@H]2[C@H]3C[C@H]46 [STRYCHNINE]
[24]
  LD50: 0.96 mg/kg
